These compounds were tested against T1, human PTHR1 receptor (Homo sapiens, UniProt Q03431) (assay: Competitive antagonist binding assay for hPTH-R1 (radioactive competition binding, SPA beads)). Details: human PTHR1 membranes, [125I]-[Nle8,18,Tyr34]-PTH(1-34) 0.2 nM, 90 minutes at room temperature; read-out: hPTHR1 Ki.
T1 construct: purchased Eurofins HTS030M
T1 sequence (Q03431 27-593): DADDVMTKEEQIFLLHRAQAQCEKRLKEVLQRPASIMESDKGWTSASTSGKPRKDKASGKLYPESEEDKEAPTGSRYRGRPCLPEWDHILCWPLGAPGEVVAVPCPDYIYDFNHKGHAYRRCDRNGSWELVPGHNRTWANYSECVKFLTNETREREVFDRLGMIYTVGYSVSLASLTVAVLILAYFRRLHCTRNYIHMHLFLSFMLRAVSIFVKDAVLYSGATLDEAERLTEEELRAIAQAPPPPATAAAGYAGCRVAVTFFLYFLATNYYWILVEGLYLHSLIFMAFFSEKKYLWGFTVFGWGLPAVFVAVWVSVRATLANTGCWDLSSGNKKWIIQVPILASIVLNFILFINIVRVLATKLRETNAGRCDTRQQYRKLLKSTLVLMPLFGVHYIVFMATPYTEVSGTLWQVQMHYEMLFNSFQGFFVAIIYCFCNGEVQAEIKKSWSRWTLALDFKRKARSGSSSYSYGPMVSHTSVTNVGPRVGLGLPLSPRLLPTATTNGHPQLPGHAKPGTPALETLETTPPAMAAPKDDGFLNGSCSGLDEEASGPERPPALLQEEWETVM
Method in brief: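 Human PTHR1 membranes on SPA beads incubated 90 min at room temperature with compound (typically 0-10,000 nM final) and 0.2 nM [125I]-[Nle8,18,Tyr34]-PTH(1-34) in HEPES buffer with MgCl2, CaCl2, BSA, Triton X-100 and protease inhibitors, pH 7.4. Scintillation signal read; Ki values derived.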

Ki, < 100 nM:
CCN1C(=O)N(c2c(F)cc(NCCNC[C@@H](O)CO)cc2F)c2cc(C#N)ccc2-c2cc(Cl)cnc21 [1-183, 4-chloro-10-{4-[(2-{[(2R)-2,3-dihydroxypropyl]amino}ethyl)amino]-2,6-difluorophenyl}-8-ethyl-9-oxo-6,8,10-triazatricyclo[9.4.0.0^2,7]pentadeca-1(11),2(7),3,5,12,14-hexaene-13-carbonitrile]
CCN1C(=O)N(c2c(F)cc(NCCN[C@@H]3CC[C@@H]3O)cc2F)c2cc(C#N)ccc2-c2cc(C(F)(F)F)cnc21 [1-184, 10-{2,6-difluoro-4-[(2-{[(1R,2S)-2-hydroxycyclobutyl]amino}ethyl)amino]phenyl}-8-ethyl-9-oxo-4-(trifluoromethyl)-6,8,10-triazatricyclo[9.4.0.0^2,7]pentadeca-1(11),2(7),3,5,12,14-hexaene-13-carbonitrile]
CCN1C(=O)N(c2c(F)cc(NCCN[C@@H](C)CO)cc2F)c2cc(C#N)ccc2-c2cc(Cl)cnc21 [1-185, 4-chloro-10-{2,6-difluoro-4-[(2-{[(2S)-1-hydroxypropan-2-yl]amino}ethyl)amino]phenyl}-8-ethyl-9-oxo-6,8,10-triazatricyclo[9.4.0.0^2,7]pentadeca-1(11),2(7),3,5,12,14-hexaene-13-carbonitrile]
CCN1C(=O)N(c2c(F)cc(NCCNC[C@@H](C)O)cc2F)c2cc(C#N)ccc2-c2cc(Cl)cnc21 [1-186, 4-chloro-10-{2,6-difluoro-4-[(2-{[(2R)-2-hydroxypropyl]amino}ethyl)amino]phenyl}-8-ethyl-9-oxo-6,8,10-triazatricyclo[9.4.0.0^2,7]pentadeca-1(11),2(7),3,5,12,14-hexaene-13-carbonitrile]
CCN1C(=O)N(c2c(F)cc(NCCN[C@H]3C[C@H](O)C3)cc2F)c2cc(C#N)ccc2-c2cc(Cl)cnc21 [1-187, 4-chloro-10-{2,6-difluoro-4-[(2-{[(1r,3r)-3-hydroxycyclobutyl]amino}ethyl)amino]phenyl}-8-ethyl-9-oxo-6,8,10-triazatricyclo[9.4.0.0^2,7]pentadeca-1(11),2(7),3,5,12,14-hexaene-13-carbonitrile]
CCN1C(=O)N(c2c(F)cc(NCCNCCOC(N)=O)cc2F)c2cc(C#N)ccc2-c2cc(Cl)cnc21 [1-189, 2-({2-[(4-{4-chloro-13-cyano-8-ethyl-9-oxo-6,8,10-triazatricyclo[9.4.0.0^2,7]pentadeca-1(11),2(7),3,5,12,14-hexaen-10-yl}-3,5-difluorophenyl)amino]ethyl}amino)ethyl carbamate]
CCN1C(=O)N(c2c(F)cc(NCCNCCCO)cc2F)c2cc(C#N)ccc2-c2cc(Cl)cnc21 [1-190, 4-chloro-10-[2,6-difluoro-4-({2-[(3-hydroxypropyl)amino]ethyl}amino)phenyl]-8-ethyl-9-oxo-6,8,10-triazatricyclo[9.4.0.0^2,7]pentadeca-1(11),2(7),3,5,12,14-hexaene-13-carbonitrile]
CCN1C(=O)N(c2c(F)cc(NCCNCCN3CCOC3=O)cc2F)c2cc(C#N)ccc2-c2cc(Cl)cnc21 [1-191, 4-chloro-10-{2,6-difluoro-4-[(2-{[2-(2-oxo-1,3-oxazolidin-3-yl)ethyl]amino}ethyl)amino]phenyl}-8-ethyl-9-oxo-6,8,10-triazatricyclo[9.4.0.0^2,7]pentadeca-1(11),2(7),3,5,12,14-hexaene-13-carbonitrile]
CCN1C(=O)N(c2c(F)cc(NCCN[C@H]3C[C@@H](O)C3)cc2F)c2cc(C#N)ccc2-c2cc(Cl)cnc21 [1-192, 4-chloro-10-{2,6-difluoro-4-[(2-{1[(1s,3s)-3-hydroxycyclobutyl]amino}ethyl)amino]phenyl}-8-ethyl-9-oxo-6,8,10-triazatricyclo[9.4.0.0^2,7]pentadeca-1(11),2(7),3,5,12,14-hexaene-13-carbonitrile]
CCN1C(=O)N(c2c(F)cc(NCCN[C@H]3CC[C@H](C(=O)O)CC3)cc2F)c2cc(C#N)ccc2-c2cc(Cl)cnc21 [1-193, (1r,4r)-4-({2-[(4-{4-chloro-13-cyano-8-ethyl-9-oxo-6,8,10-triazatricyclo[9.4.0.0^2,7]pentadeca-1(11),2(7),3,5,12,14-hexaen-10-yl}-3,5-difluorophenyl)amino]ethyl}amino)cyclohexane-1-carboxylic acid]
CCN1C(=O)N(c2c(F)cc(NCCNC[C@@H](O)CO)cc2F)c2cc(C#N)ccc2-c2cc(F)cnc21 [1-194, 10-{4-[(2-{[(2R)-2,3-dihydroxypropyl]amino}ethyl)amino]-2,6-difluorophenyl}-8-ethyl-4-fluoro-9-oxo-6,8,10-triazatricyclo[9.4.0.0^2,7]pentadeca-1(11),2(7),3,5,12,14-hexaene-13-carbonitrile]
CN1C(=O)N(c2c(F)cc(NCCNCCO)cc2F)c2cc(C#N)ccc2-c2cc(Cl)cnc21 [1-195, 4-chloro-10-[2,6-difluoro-4-({2-[(2-hydroxyethyl)amino]ethyl}amino)phenyl]-8-methyl-9-oxo-6,8,10-triazatricyclo[9.4.0.0^2,7]pentadeca-1(11),2(7),3,5,12,14-hexaene-13-carbonitrile]
CCN1C(=O)N(c2c(F)cc(NCCN[C@@H]3CC[C@H]3O)cc2F)c2cc(C#N)ccc2-c2cc(C(F)(F)F)cnc21 [1-196, 10-{2,6-difluoro-4-[(2-{[(1R,2R)-2-hydroxycyclobutyl]amino}ethyl)amino]phenyl}-8-ethyl-9-oxo-4-(trifluoromethyl)-6,8,10-triazatricyclo[9.4.0.0^2,7]pentadeca-1(11),2(7),3,5,12,14-hexaene-13-carbonitrile]
CN1C(=O)N(c2c(F)cc(NCCNCCCO)cc2F)c2cc(C#N)ccc2-c2cc(Cl)cnc21 [1-197, 4-chloro-10-[2,6-difluoro-4-({2-[(3-hydroxypropyl)amino]ethyl}amino)phenyl]-8-methyl-9-oxo-6,8,10-triazatricyclo[9.4.0.0^2,7]pentadeca-1(11),2(7),3,5,12,14-hexaene-13-carbonitrile]
CN1C(=O)N(c2c(F)cc(NCCN[C@H]3C[C@H](O)C3)cc2F)c2cc(C#N)ccc2-c2cc(Cl)cnc21 [1-198, 4-chloro-10-{2,6-difluoro-4-[(2-{[(1r,3r)-3-hydroxycyclobutyl]amino}ethyl)amino]phenyl}-8-methyl-9-oxo-6,8,10-triazatricyclo[9.4.0.0^2,7]pentadeca-1(11),2(7),3,5,12,14-hexaene-13-carbonitrile]
CCN1C(=O)N(c2c(F)cc(NCCNC[C@H](C)O)cc2F)c2cc(C#N)ccc2-c2cc(F)cnc21 [1-199, 10-{2,6-difluoro-4-[(2-{[(2S)-2-hydroxypropyl]amino}ethyl)amino]phenyl}-8-ethyl-4-fluoro-9-oxo-6,8,10-triazatricyclo[9.4.0.0^2,7]pentadeca-1(11),2(7),3,5,12,14-hexaene-13-carbonitrile]
CCN1C(=O)N(c2c(F)cc(NCCNC[C@H](O)CO)cc2F)c2cc(C#N)ccc2-c2cc(F)cnc21 [1-200, 10-{4-[(2-{[(2S)-2,3-dihydroxypropyl]amino}ethyl)amino]-2,6-difluorophenyl}-8-ethyl-4-fluoro-9-oxo-6,8,10-triazatricyclo[9.4.0.0^2,7]pentadeca-1(11),2(7),3,5,12,14-hexaene-13-carbonitrile]
CN1C(=O)N(c2c(F)cc(NCCNCCCC(=O)O)cc2F)c2cc(C#N)ccc2-c2cc(Cl)cnc21 [1-201, 4-({2-[(4-{4-chloro-13-cyano-8-methyl-9-oxo-6,8,10-triazatricyclo[9.4.0.0^2,7]pentadeca-1(11),2(7),3,5,12,14-hexaen-10-yl}-3,5-difluorophenyl)amino]ethyl}amino)butanoic acid]
CCN1C(=O)N(c2c(F)cc(NCCN[C@@H](CO)CC(=O)O)cc2F)c2cc(C#N)ccc2-c2cc(Cl)cnc21 [1-202, (3R)-3-({2-[(4-{4-chloro-13-cyano-8-ethyl-9-oxo-6,8,10-triazatricyclo[9.4.0.0^2,7]pentadeca-1(11),2(7),3,5,12,14-hexaen-10-yl}-3,5-difluorophenyl)amino]ethyl}amino)-4-hydroxybutanoic acid]
CCN1C(=O)N(c2c(F)cc(NCCNC[C@@H](C)O)cc2F)c2cc(C#N)ccc2-c2cc(F)cnc21 [1-203, 10-{2,6-difluoro-4-[(2-{[(2R)-2-hydroxypropyl]amino}ethyl)amino]phenyl}-8-ethyl-4-fluoro-9-oxo-6,8,10-triazatricyclo[9.4.0.0^2,7]pentadeca-1(11),2(7),3,5,12,14-hexaene-13-carbonitrile]
CCN1C(=O)N(c2c(F)cc(NCCN[C@@H]3CC[C@@H]3O)cc2F)c2cc(C#N)ccc2-c2cc(F)cnc21 [1-204, 10-{2,6-difluoro-4-[(2-{[(1R,2S)-2-hydroxycyclobutyl]amino}ethyl)amino]phenyl}-8-ethyl-4-fluoro-9-oxo-6,8,10-triazatricyclo[9.4.0.0^2,7]pentadeca-1(11),2(7),3,5,12,14-hexaene-13-carbonitrile]

— patent publication US20230159532A1, “PARATHYROID HORMONE (PTH) RECEPTOR ANTAGONISTS AND USES THEREOF” (Crinetics Pharmaceuticals, Inc., priority 2021, published 2023)
